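Tested at 5 concentrations; 48 h exposure; 96-well plates; endpoints linearly interpolated, else capped at highest concentration. GI50 marks 50% less growth.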 The source made the active and inactive calls. Rule as the data show it: active = GI50 up to about 1.1 µM and inactive = higher.
Key:
Assay in all cases: DTP human tumour cell line panel, 48 h
[1] = tested on: SNB-19
[2] = tested on: T47D
[3] = tested on: OVCAR-3
[4] = tested on: CCRF-CEM
[5] = tested on: IGROV-1
[6] = tested on: 786-0
[7] = tested on: Hs-578T
[8] = tested on: UACC-62
[9] = tested on: SW-620
[10] = tested on: SF-295
[11] = tested on: CAKI-1
[12] = tested on: MDA-MB-435
[13] = tested on: BT-549
[14] = tested on: RPMI-8226
[15] = tested on: NCI-H23
[16] = tested on: Malme-3M
[17] = tested on: COLO 205
[18] = tested on: TK-10
[19] = tested on: MCF7
[20] = tested on: SN12C
[21] = tested on: NCI/ADR-RES
[22] = tested on: OVCAR-8
[23] = tested on: SK-MEL-2
[24] = tested on: HL-60
[25] = tested on: HCT-15
[26] = tested on: NCI-H226
[27] = tested on: K562
[28] = tested on: M14
[29] = tested on: KM12
[30] = tested on: SF-268
[31] = tested on: MDA-MB-231
[32] = tested on: SF-539
[33] = tested on: EKVX
[34] = tested on: HT-29
[35] = tested on: HOP-62
[36] = tested on: A549
[37] = tested on: HOP-92
[38] = tested on: HCC 2998
[39] = tested on: RXF 393
[40] = tested on: SK-OV-3
[41] = tested on: SK-MEL-28
[42] = tested on: UACC-257
[43] = tested on: NCI-H522
[44] = tested on: U-251
[45] = tested on: OVCAR-4
[46] = tested on: PC-3
[47] = tested on: HCT-116
[48] = tested on: OVCAR-5
[49] = tested on: NCI-H460
[50] = tested on: SK-MEL-5
[51] = tested on: UO-31
[52] = tested on: A498
[53] = tested on: SNB-75
[54] = tested on: MOLT-4
[55] = tested on: DU-145
[56] = tested on: ACHN
[57] = tested on: SR
[58] = tested on: LOX IMVI
[59] = tested on: MDA-N
[60] = tested on: DLD-1
[61] = tested on: XF498
[62] = tested on: M19-MEL
[63] = tested on: DMS-273
[64] = tested on: DMS-114
[65] = tested on: SNB-78
[66] = tested on: LXFL 529
[67] = tested on: KM-20L2
[68] = tested on: HOP-18

Measured: GI50

CCOC(=O)C1CC(C(=O)c2ccccc2)N2c3ccccc3-c3ccccc3C12 (stereo not given)
inactive: [1] > 100 µM | [2] 23.6 µM | [3] 30 µM | [4] 28.1 µM | [5] 37.2 µM | [6] 40.1 µM | [7] 25.9 µM | [8] 46.7 µM | [9] > 100 µM | [10] 82.2 µM | [11] > 100 µM | [12] 86.7 µM | [13] 57.3 µM | [14] 11.9 µM | [15] > 100 µM | [16] > 100 µM | [17] 30.2 µM | [18] > 100 µM | [19] > 100 µM | [20] > 100 µM | [21] 43.2 µM | [22] 33.8 µM | [23] > 100 µM | [24] 10.7 µM | [26] > 100 µM | [27] 31.6 µM | [28] 26.4 µM | [29] 48.6 µM | [30] 74.6 µM | [31] 41.7 µM | [32] > 100 µM | [33] > 100 µM | [34] 78.2 µM | [35] 97.1 µM | [36] 73.6 µM | [37] 52.8 µM | [38] > 100 µM | [39] 29.9 µM | [40] > 100 µM | [41] > 100 µM | [42] > 100 µM | [43] 50.9 µM | [44] 30.3 µM | [45] 26.4 µM | [46] 40.6 µM | [47] 30.8 µM | [48] > 100 µM | [49] > 100 µM | [50] 45.1 µM | [51] 32.7 µM | [52] > 100 µM | [53] 28.1 µM | [54] 52 µM | [55] > 100 µM | [56] > 100 µM | [57] 19.2 µM | [58] 65 µM | [59] > 100 µM
> 100 µM: [25]

O=C1C2=C(N[C@@H](c3ccccc3)[C@H](c3ccccc3)N2)C(=O)c2ccccc21
inactive: [1] > 100 µM | [3] > 100 µM | [4] > 100 µM | [5] > 100 µM | [6] 76.4 µM | [8] > 100 µM | [9] > 100 µM | [10] > 100 µM | [11] > 100 µM | [14] > 100 µM | [15] > 100 µM | [16] > 100 µM | [60] > 100 µM | [61] > 100 µM | [18] > 100 µM | [20] > 100 µM | [62] > 100 µM | [22] > 100 µM | [23] > 100 µM | [24] > 100 µM | [26] > 100 µM | [27] > 100 µM | [28] > 100 µM | [29] > 100 µM | [30] > 100 µM | [63] > 100 µM | [32] > 100 µM | [34] > 100 µM | [35] > 100 µM | [36] > 100 µM | [37] 8.05 µM | [38] > 100 µM | [39] > 100 µM | [40] > 100 µM | [41] > 100 µM | [42] > 100 µM | [64] > 100 µM | [43] > 100 µM | [44] > 100 µM | [45] > 100 µM | [65] > 100 µM | [47] > 100 µM | [48] > 100 µM | [49] > 100 µM | [50] > 100 µM | [51] > 100 µM | [52] > 100 µM | [53] 51.8 µM | [54] > 100 µM | [56] > 100 µM | [57] > 100 µM | [58] > 100 µM | [66] > 100 µM
> 100 µM: [25]

Cc1cccc(/N=N/c2ccc(O)c(CN(C)C)c2)c1
inactive: [1] 41.9 µM | [2] 11.5 µM | [3] 17.2 µM | [5] 21.8 µM | [6] 18.9 µM | [7] 16 µM | [8] 8.95 µM | [9] 18.2 µM | [10] 28.4 µM | [11] 20.7 µM | [12] 15.2 µM | [13] 17.2 µM | [14] 32 µM | [15] 57.8 µM | [16] 10 µM | [17] 13.2 µM | [18] 22.9 µM | [19] 39.1 µM | [20] 62.4 µM | [21] 16.9 µM | [22] 21.3 µM | [23] 20.7 µM | [24] 23.4 µM | [26] 30.9 µM | [27] 3.33 µM | [28] 27.4 µM | [29] 13.4 µM | [30] 26.2 µM | [31] 5.6 µM | [32] 18.2 µM | [33] 20.3 µM | [34] 17.5 µM | [35] 11.1 µM | [36] 32.4 µM | [37] 6.17 µM | [38] 16.4 µM | [39] 29 µM | [40] 41.7 µM | [41] 19.2 µM | [42] 17.5 µM | [43] 10.5 µM | [44] 45.9 µM | [45] 55.3 µM | [46] 36.4 µM | [47] 20.5 µM | [48] 33.8 µM | [49] 16.7 µM | [50] 14 µM | [51] 7.35 µM | [52] 18.1 µM | [53] 29 µM | [54] 20 µM | [55] > 10 µM | [56] 8 µM | [57] 43.1 µM | [58] 5.41 µM | [59] 27.3 µM
11.2 µM: [25]
active: [4] 0.0753 µM

[O-][Cl+3]([O-])([O-])O.c1ccc(/N=c2\snc(-c3ccccc3)s2)cc1
> 100 µM: [25]
inactive: [1] > 100 µM | [4] > 100 µM | [5] > 100 µM | [6] > 100 µM | [8] > 100 µM | [9] > 100 µM | [11] > 100 µM | [14] > 100 µM | [16] > 100 µM | [60] > 100 µM | [17] > 100 µM | [18] > 100 µM | [20] > 100 µM | [62] > 100 µM | [22] > 100 µM | [23] > 100 µM | [24] > 100 µM | [26] > 100 µM | [27] > 100 µM | [28] > 100 µM | [29] > 100 µM | [30] > 100 µM | [63] > 100 µM | [32] > 100 µM | [67] > 100 µM | [35] > 100 µM | [36] > 100 µM | [38] > 100 µM | [39] > 100 µM | [40] > 100 µM | [41] > 100 µM | [42] > 100 µM | [64] > 100 µM | [43] > 100 µM | [44] > 100 µM | [45] > 100 µM | [65] > 100 µM | [47] > 100 µM | [49] > 100 µM | [50] > 100 µM | [68] > 100 µM | [51] > 100 µM | [52] > 100 µM | [53] > 100 µM | [54] > 100 µM | [56] > 100 µM | [57] > 100 µM | [66] > 100 µM

Cc1nccn1S(=O)(=O)c1ccc(Cl)cc1
41.6 µM: [25]
inactive: [1] > 100 µM | [2] 38 µM | [3] 54.8 µM | [4] 41 µM | [5] 37.4 µM | [6] > 100 µM | [7] 44.9 µM | [8] 55.6 µM | [9] 65.2 µM | [10] 67.6 µM | [11] 42 µM | [12] 22.7 µM | [13] 74.5 µM | [14] 48.6 µM | [15] 39.6 µM | [16] 34.8 µM | [17] 19.8 µM | [18] 72.8 µM | [19] 45 µM | [20] 37.8 µM | [21] 43.6 µM | [22] 59.2 µM | [23] 72.9 µM | [24] 22.9 µM | [26] 74.8 µM | [27] 37.8 µM | [28] 41.7 µM | [29] 42.5 µM | [30] 47.9 µM | [31] 31.9 µM | [32] 32.7 µM | [33] 31.3 µM | [34] 35 µM | [35] 58.2 µM | [36] > 100 µM | [37] 16.9 µM | [38] 29.2 µM | [39] 52 µM | [40] 87.5 µM | [41] 94 µM | [42] 42.5 µM | [43] 27.9 µM | [44] 61.1 µM | [45] 29.5 µM | [46] 99.8 µM | [47] 30.5 µM | [48] 64.6 µM | [49] 41.9 µM | [50] 37.4 µM | [51] 58.3 µM | [52] 36.1 µM | [53] 57 µM | [54] 56.9 µM | [55] 81.8 µM | [56] 95.9 µM | [57] 38 µM | [58] 41.5 µM | [59] 22.2 µM

Reference: ChEMBL document CHEMBL1201862, “PubChem BioAssay data set” (2004)
